Measurements as given in patent publication US6504058B1 (priority 1997, dated 2003).

Experiments:
[1] = system: Erysiphe graminis f. sp. tritici; experiment: Test A: wheat powdery mildew, preventive spray on wheat seedlings, disease rating; format: in vivo, Erysiphe graminis f. sp. tritici (on wheat seedlings); conditions: 200 ppm test suspension sprayed to run-off (equivalent to 500 g/ha) on wheat seedlings; 100 = 100% disease control, 0 = no control; # = significant activity
In short: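 Compounds at 200 ppm (acetone 3%, 250 ppm Trem 014 in water; equivalent to 500 g/ha) sprayed to run-off on wheat seedlings, inoculated with spore dust the following day. Plants held at 20° C. for 7 days, then rated 0–100% disease control relative to untreated controls.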

Puccinia recondita = experiment: Test B: wheat leaf rust, preventive spray on wheat seedlings, disease rating; format: in vivo, Puccinia recondita (on wheat seedlings); conditions: 200 ppm test suspension sprayed to run-off (equivalent to 500 g/ha) on wheat seedlings; 100 = 100% disease control, 0 = no control; # = significant activity
In short: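 Wheat seedlings were sprayed to run-off with 200 ppm suspensions (≈500 g/ha; 3% acetone, 250 ppm Trem 014) and inoculated with Puccinia recondita spores the next day. Plants were held 24 h saturated at 20 °C, then 6 days at 20 °C. Disease control was rated 0-100 relative to untreated controls.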

Pyricularia oryzae = format: in vivo, Pyricularia oryzae (on rice seedlings); conditions: 200 ppm test suspension sprayed to run-off (equivalent to 500 g/ha) on rice seedlings; 100 = 100% disease control, 0 = no control; # = significant activity
Phytophthora infestans = format: in vivo, Phytophthora infestans (on tomato seedlings); conditions: 200 ppm test suspension sprayed to run-off (equivalent to 500 g/ha) on tomato seedlings; 100 = 100% disease control, 0 = no control; # = significant activity
Botrytis cinerea = experiment: Test E: gray mold, preventive spray on cucumber seedlings, disease rating; format: in vivo, Botrytis cinerea (on cucumber seedlings); conditions: 200 ppm test suspension sprayed to run-off (equivalent to 500 g/ha) on cucumber seedlings; 100 = 100% disease control, 0 = no control; # = significant activity
In short: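 Cucumber seedlings sprayed to run-off with 200 ppm suspension (equivalent to 500 g/ha), inoculated next day with B. cinerea spores. Kept 48 h saturated at 20 °C, then 5 days in growth chamber at 20 °C; disease control rated 0–100 relative to controls.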

Row | SMILES | Test A disease control rating (wheat powdery mildew) [1] | Test B disease control rating (wheat leaf rust) (Puccinia recondita) | Test C disease control rating (rice blast) (Pyricularia oryzae) | Test D disease control rating (potato and tomato late blight) (Phytophthora infestans) | Test E disease control rating (gray mold) (Botrytis cinerea)
1 | CC(COc1cc(F)ccc1C#N)NC(=O)C1(C)CC(C)(Cl)C1 (centres unmarked) [compound 43] | 0 (a rating of 0 indicates no disease control (relative to the controls)) | 0 (a rating of 0 indicates no disease control (relative to the controls)) | 0 (a rating of 0 indicates no disease control (relative to the controls)) | 20% | 19%
2 | CC(COc1cc(F)ccc1C#N)NC(=O)C1(C)CC(C)(Cl)C1 (centres unmarked) [compound 44] | 0 (a rating of 0 indicates no disease control (relative to the controls)) | 0 (a rating of 0 indicates no disease control (relative to the controls)) | 94# % | 20% | 84%
3 | CC(COc1cc(Cl)ccc1C#N)NC(=O)C1(C)CC(C)(Cl)C1 (centres unmarked) [compound 45] | 0 (a rating of 0 indicates no disease control (relative to the controls)) | 0 (a rating of 0 indicates no disease control (relative to the controls)) | 99# % | 61% | 0 (a rating of 0 indicates no disease control (relative to the controls))
4 | CC(COc1cc(Cl)ccc1C#N)NC(=O)C1(C)CC(C)(Cl)C1 (centres unmarked) [compound 46] | 63% | 28% | 91# % | 43% | 0 (a rating of 0 indicates no disease control (relative to the controls))
5 | CC(COc1cc(Br)ccc1C#N)NC(=O)C1(C)CC(C)(Cl)C1 (centres unmarked) [compound 47] | 97# % | 25% | 94# % | 26% | 0 (a rating of 0 indicates no disease control (relative to the controls))
6 | CC(COc1cc(Br)ccc1C#N)NC(=O)C1(C)CC(C)(Cl)C1 (centres unmarked) [compound 48] | 96# % | 85# % | 99# % | 47% | 0 (a rating of 0 indicates no disease control (relative to the controls))
7 | CC(COc1cc(F)ccc1Cl)NC(=O)C1(C)CC(C)(Cl)C1 (centres unmarked) [compound 49] | 98# % | 0 (a rating of 0 indicates no disease control (relative to the controls)) | 100# (a rating of 100 indicates 100% disease control) | 0 (a rating of 0 indicates no disease control (relative to the controls)) | 0 (a rating of 0 indicates no disease control (relative to the controls))
8 | CC(COc1cc(F)ccc1Cl)NC(=O)C1(C)CC(C)(Cl)C1 (centres unmarked) [compound 50] | 54% | 0 (a rating of 0 indicates no disease control (relative to the controls)) | 94# % | 0 (a rating of 0 indicates no disease control (relative to the controls)) | 0 (a rating of 0 indicates no disease control (relative to the controls))
9 | CC(COc1cc(Cl)ccc1F)NC(=O)C1(C)CC(C)(Cl)C1 (centres unmarked) [compound 51] | 83# % | 0 (a rating of 0 indicates no disease control (relative to the controls)) | 100# (a rating of 100 indicates 100% disease control) | 0 (a rating of 0 indicates no disease control (relative to the controls)) | 0 (a rating of 0 indicates no disease control (relative to the controls))
10 | CC(COc1cc(Cl)ccc1F)NC(=O)C1(C)CC(C)(Cl)C1 (centres unmarked) [compound 52] | 83# % | 0 (a rating of 0 indicates no disease control (relative to the controls)) | 100# (a rating of 100 indicates 100% disease control) | 0 (a rating of 0 indicates no disease control (relative to the controls)) | 0 (a rating of 0 indicates no disease control (relative to the controls))
11 | CC(COc1cc(Cl)ccc1F)NC(=O)C1(C)CC(C)(Br)C1 (centres unmarked) [compound 53] | 100# (a rating of 100 indicates 100% disease control) | 0 (a rating of 0 indicates no disease control (relative to the controls)) | 100# (a rating of 100 indicates 100% disease control) | 0 (a rating of 0 indicates no disease control (relative to the controls)) | 0 (a rating of 0 indicates no disease control (relative to the controls))
12 | CC(COc1cc(Cl)ccc1F)NC(=O)C1(C)CC(C)(Br)C1 (centres unmarked) [compound 54] | 24% | 0 (a rating of 0 indicates no disease control (relative to the controls)) | 97# % | 0 (a rating of 0 indicates no disease control (relative to the controls)) | 0 (a rating of 0 indicates no disease control (relative to the controls))
13 | CC(COc1cc(F)ccc1Cl)NC(=O)C1(C)CC(C)(Br)C1 (centres unmarked) [compound 55] | 83# % | 0 (a rating of 0 indicates no disease control (relative to the controls)) | 74% | 0 (a rating of 0 indicates no disease control (relative to the controls)) | 0 (a rating of 0 indicates no disease control (relative to the controls))
14 | CC(COc1cc(F)ccc1Cl)NC(=O)C1(C)CC(C)(Br)C1 (centres unmarked) [compound 56] | 99# % | 0 (a rating of 0 indicates no disease control (relative to the controls)) | 100# (a rating of 100 indicates 100% disease control) | 0 (a rating of 0 indicates no disease control (relative to the controls)) | 0 (a rating of 0 indicates no disease control (relative to the controls))
15 | CC(COc1cc(F)ccc1F)NC(=O)C1(C)CC(C)(Br)C1 (centres unmarked) [compound 57] | 90# % | 0 (a rating of 0 indicates no disease control (relative to the controls)) | 86# % | 0 (a rating of 0 indicates no disease control (relative to the controls)) | 0 (a rating of 0 indicates no disease control (relative to the controls))
16 | CC(COc1cc(F)ccc1F)NC(=O)C1(C)CC(C)(Br)C1 (centres unmarked) [compound 58] | 72% | 0 (a rating of 0 indicates no disease control (relative to the controls)) | 97# % | 0 (a rating of 0 indicates no disease control (relative to the controls)) | 0 (a rating of 0 indicates no disease control (relative to the controls))
